Laboratory results taken from patent US20090118135A1, “METHODS AND COMPOUNDS FOR REGULATING APOPTOSIS” (The Burnham Institute, priority 2007, published 2009).
Like-named read-outs stand apart in the source and are kept apart here.

Assays:
GST-Bcl-B = biological target: T1, GST-Bcl-B (Homo sapiens, UniProt Q9HD36); test: Bcl-B/FITC-TR3-r8 fluorescence polarization competition (displacement) assay, HTS and dose-response
T1 sequence (Q9HD36 1-182 limits assumed): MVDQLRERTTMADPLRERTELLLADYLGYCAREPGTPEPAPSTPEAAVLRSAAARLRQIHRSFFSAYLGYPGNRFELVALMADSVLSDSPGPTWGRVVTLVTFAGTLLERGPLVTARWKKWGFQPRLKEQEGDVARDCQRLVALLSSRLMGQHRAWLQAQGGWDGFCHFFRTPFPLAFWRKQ

GST-Bfl-1 = biological target: T2, GST-Bfl-1 (Homo sapiens, UniProt Q16548); test: Bfl-1/FITC-Bid BH3 competitive fluorescence polarization assay; format: binding; details: primary HTS hits, MLSCN library (PubChem SIDs), Table 5B
T2 construct: lacking their C-terminal transmembrane domains (about the last 20 amino acids) (“ΔTM”); made in house; host or cells: XL-1 Blue E. coli, pGEX 4T-1
T2 sequence (Q16548 1-155 limits assumed): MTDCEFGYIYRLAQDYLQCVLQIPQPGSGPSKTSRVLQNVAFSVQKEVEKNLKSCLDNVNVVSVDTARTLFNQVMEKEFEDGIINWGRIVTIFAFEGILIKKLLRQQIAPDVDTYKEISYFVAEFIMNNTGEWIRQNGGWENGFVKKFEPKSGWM

[1] = Table 8, NCI Structural library, Binding Assay, FP, Concentration 0.02 uM
[2] = read-out: Result Value (Result Type % Inhibition), BCL-b/TR3
[3] = Table 7, NCI Mechanistic library, Binding Assay, FP, Concentration 0.02 uM
[4] = read-out: Result Value (Result Type % Inhibition), BCL-b/TR3, Table 8, NCI Structural library, Binding Assay, FP, Concentration 0.02 uM

Compound | inhibition at 0.02 µM (GST-Bcl-B; [2]) [%] | % Activity (GST-Bfl-1) [%] | FRatio (GST-Bfl-1) | also measured
O=C(O)C1=CC(=C(c2ccc(O)c(C(=O)O)c2)c2ccc(O)c(C(=O)O)c2)C=CC1=O [A 1895] |  |  |  | Is Hit (GST-Bcl-B; LOPAC1280 library primary screen): Yes; F Ratio (GST-Bcl-B; LOPAC1280 library, fluorescence intensity normalized to plate negative controls): 0.07629; inhibition at 0.02 µM (GST-Bcl-B; read-out: Result Value (% Inhibition)): 107%
O=[N+]([O-])c1ccc2c(/N=N/c3ccc4ccccc4c3O)c(O)cc(S(=O)(=O)O)c2c1 [Compound 7223] | 139 |  |  | F Ratio (GST-Bcl-B; [1]): 0.05712; Is Hit (GST-Bcl-B; [1]): Yes
Cc1ccc(/N=N/c2c(O)ccc3cc(S(=O)(=O)O)ccc23)cc1 [Compound 7814] | 54.3 |  |  | F Ratio (GST-Bcl-B; [1]): 0.28; Is Hit (GST-Bcl-B; [1]): Yes
O=S(=O)(O)c1ccc(NN(c2c(O)ccc3ccccc23)S(=O)(=O)O)cc1 [Compound 9600] | 50.7 |  |  | F Ratio (GST-Bcl-B; [1]): 0.4361; Is Hit (GST-Bcl-B; [1]): Yes
O=C1c2ccccc2C(=O)c2c(O)c(O)cc(O)c21 [Compound 10447] | 146 |  |  | F Ratio (GST-Bcl-B; [3]): 0.5532; Is Hit (GST-Bcl-B; [3]): Yes
Cc1ccc(/N=N/c2c(O)c(S(=O)(=O)O)cc3cc(S(=O)(=O)O)ccc23)c(C)c1 [Compound 10455] | 50.7 |  |  | F Ratio (GST-Bcl-B): 0.4406; Is Hit (GST-Bcl-B): Yes
N=C1C=CC(=C(c2ccc(N)cc2)c2ccc(N)cc2)C=C1 [Compound 10460] | 81.7 |  |  | F Ratio (GST-Bcl-B; [1]): 0.1378; Is Hit (GST-Bcl-B; [1]): Yes
Oc1c(C(O)(c2ccccc2)c2ccc3ccccc3c2O)ccc2ccccc12 [Compound 13984] | 87 |  |  | F Ratio (GST-Bcl-B; [1]): 0.7704; Is Hit (GST-Bcl-B; [1]): Yes
CN(C)CS/C(N)=N\C(O)C(Cl)(Cl)Cl (stereo not shown) [Compound 14555] |  |  |  | F Ratio (GST-Bcl-B; [1]): 0.6767; Is Hit (GST-Bcl-B; [1]): Yes; inhibition at 0.02 µM (GST-Bcl-B; [4]): 59.9%
CCN(CCO)CCNc1ccc(C)c2sc3ccccc3c(=O)c12 [Compound 20534] | 74.4 |  |  | F Ratio (GST-Bcl-B; [3]): 0.6411; Is Hit (GST-Bcl-B; [3]): Yes
CCN1C=C/C(=C\C=C\c2cc[n+](CC)c3ccccc23)C2C=CC=CC21 (stereo not shown) [Compound 34391] | 104 |  |  | F Ratio (GST-Bcl-B; [3]): 0.2486; Is Hit (GST-Bcl-B; [3]): Yes
O=S(=O)(O)c1cc(/N=N/c2cc(S(=O)(=O)O)c3ccccc3c2O)ccc1/C=C/c1ccc(/N=N/c2cc(S(=O)(=O)O)c3ccccc3c2O)cc1S(=O)(=O)O [Compound 34931] | 80.3 |  |  | F Ratio (GST-Bcl-B; [3]): 0.0509; Is Hit (GST-Bcl-B; [3]): Yes
O=S(=O)(O)c1cc(/N=[N+](\[O-])c2cc(S(=O)(=O)O)c3ccccc3c2)cc2ccccc12 [Compound 37031] | 84.6 |  |  | F Ratio (GST-Bcl-B; [1]): 0.4022; Is Hit (GST-Bcl-B; [1]): Yes
O=S(=O)(O)c1cc(O)c2c(O)c(/N=N/c3cccc4ccccc34)c(S(=O)(=O)O)cc2c1 [Compound 45208] | 66.1 |  |  | F Ratio (GST-Bcl-B; [1]): 0.1219; Is Hit (GST-Bcl-B; [1]): Yes
O=S(=O)(O)c1ccc2c(/N=N/c3c(O)ccc4ccccc34)cccc2c1 [Compound 45576] | 119 |  |  | F Ratio (GST-Bcl-B; [1]): 0.05945; Is Hit (GST-Bcl-B; [1]): Yes
O=S(=O)(O)c1ccc2c(/N=N/c3cccc4ccccc34)c(O)c(S(=O)(=O)O)cc2c1 [Compound 45583] | 84.6 |  |  | F Ratio (GST-Bcl-B; [1]): 0.1069; Is Hit (GST-Bcl-B; [1]): Yes
CN(C)C1C(O)=C(C(=O)NCN2CCCC2)C(=O)C2(O)C(O)=C3C(=O)c4c(O)cccc4C(C)(O)C3CC12 (stereo not shown) [Compound 50352] |  |  |  | F Ratio (GST-Bcl-B; [1]): 0.2153; Is Hit (GST-Bcl-B; [1]): Yes; inhibition at 0.02 µM (GST-Bcl-B; [4]): 122%
O=C1c2cc([N+](=O)[O-])ccc2-c2ccc3c4ccc5c6c(ccc(c7ccc1c2c73)c64)C(=O)c1cc([N+](=O)[O-])ccc1-5 [Compound 51535] | 146 |  |  | F Ratio (GST-Bcl-B; [1]): 0.4823; Is Hit (GST-Bcl-B; [1]): Yes
Cc1cc2c(C(C)C)c(O)c(O)c(C=O)c2c(O)c1-c1c(C)cc2c(C(C)C)c(O)c(O)c(C=O)c2c1O [Compound 56817] |  |  |  | F Ratio (GST-Bcl-B; [3]): 0.1472; Is Hit (GST-Bcl-B; [3]): Yes; inhibition at 0.02 µM (GST-Bcl-B; read-out: Result Value (Result Type % Inhibition), BCL-b/TR3, Table 7, NCI Mechanistic library, Binding Assay, FP, Concentration 0.02 uM): 57.3%
O=C(N/N=C1\C(=O)c2cccc3cccc1c23)c1ccc(Cl)cc1 [Compound 16953557] |  | 68.6 | 0.84 | 
CC(=N)/C(C#N)=C(\O)CSc1nc2ccccc2[nH]1 [Compound 17385704] |  | 105.8 | 0.67 | 

Compound | inhibition at 0.02 µM (GST-Bcl-B; [2]) [%] | % Activity (GST-Bfl-1) [%] | FRatio (GST-Bfl-1) | also measured
COc1cc(-c2nnc(SCc3cc(=O)oc4cc(O)c(O)cc34)o2)cc(OC)c1OC [Compound 17385711] |  | 68.3 | 0.7 | 
COc1ccccc1CNC(=O)COC(=O)c1cc(-c2ccco2)nc2ccccc12 [Compound 17385737] |  | 70.8 | 0.81 | 
N#Cc1ccccc1CN1C(=O)S/C(=C/c2cccn2-c2ccc(C(=O)O)cc2)C1=O [Compound 17385953] |  | 63.5 | 0.75 | 
Cn1c(SCC(=O)Nc2ccc3nc(SCC(=O)N4CCCC4)sc3c2)nnc1-c1ccc(N)cc1 [Compound 17386645] |  | 53.9 | 0.79 | 
COc1cc(CNCCc2c[nH]c3ccccc23)ccc1OCc1ccc(F)cc1 [Compound 17386700] |  | 76.5 | 0.84 | 
CN(CC(=O)Nc1c(Cl)cccc1Cl)C(=O)CCCN1C(=O)c2ccccc2C1=O [Compound 17388283] |  | 57.1 | 0.97 | 
O=[N+]([O-])c1cc(-c2ccc(/C=N/c3nc4ccccn4c3-c3ccco3)o2)ccc1Cl [Compound 17388349] |  | 60.5 | 0.99 | 
CCn1c(CSc2nc3ccccc3s2)nnc1SCC(=O)c1ccc(O)c(O)c1 [Compound 17388455] |  | 74.1 | 0.8 | 
CN(C)c1cccc(C(=O)OCc2cc(=O)oc3cc(O)ccc23)c1 [Compound 17388495] |  | 71.7 | 1 | 
C=CCN1C(=O)/C(=C2/C(=O)N(CC(=O)O)c3ccccc32)S/C1=N\c1nccs1 [Compound 17401584] |  | 131.8 | 0.83 | 
Oc1ccc(C2=Nn3c(nnc3-c3ccco3)SC2)cc1O [Compound 17401638] |  | 56.6 | 0.82 | 
COc1ccc(C2C=C(c3ccc(Br)cc3)Nc3nc(NS(C)(=O)=O)nn32)cc1 (stereo not shown) [Compound 17401655] |  | 54.6 | 1.46 | 
O=C(CCCCCn1c(=S)[nH]c2ccccc2c1=O)NCc1ccc2c(c1)OCO2 [Compound 17402018] |  | 52.9 | 1.37 | 
O=c1c([N+](=O)[O-])cc(C(F)(F)F)cn1Cc1cccc(Cl)c1 [Compound 17402915] |  | 89.8 | 0.61 | 
O=C1c2ccccc2C(=O)c2c1cccc2N1CCN(CCO)CC1 [Compound 17403435] |  | 56.9 | 1.3 | 
Nc1cc2nsnc2cc1Br [Compound 17407909] |  | 58.5 | 1.42 | 
O=C(N/N=C/c1ccc(F)cc1)c1cc(-c2ccco2)nc2ccccc12 [Compound 17408998] |  | 84.8 | 0.87 | 
O=C(COc1ccccc1C(=O)N/N=C/c1ccc(O)c(O)c1)N/N=C/c1ccc(O)c(O)c1 [Compound 17409262] |  | 70.9 | 0.77 | 
Cc1nc(NC(=O)c2ccco2)sc1-c1csc(Nc2ccc(Cl)cc2Cl)n1 [Compound 17410012] |  | 54.4 | 0.7 | 
COC(=O)C1=C(C)N(c2ccccc2)/C(=C/c2cccs2)C1=O [Compound 17415043] |  | 65.7 | 0.53 | 
N/C(=N\N=C\c1ccc(-c2ccc(O)c(C(=O)O)c2)o1)N[N+](=O)[O-] [Compound 17416093] |  | 84.4 | 0.7 | 
